What all share (format): cell-based
For assay [1], the target named is T1, CDK12 (Homo sapiens, UniProt Q9NYV4).
T1 construct: endogenous in cells; host or cells: CAL-120 human breast cancer cells (DSMZ ACC 459)
As to the kind of experiment: CDK12 nuclear protein level: immunofluorescence/high content analysis in CAL-120 cells. The following applies: for DC50: CAL-120 cells, 24 h, nuclear CDK12 staining intensity, median, read-out: CDK12 degradation IF DC50 - [mol/l] (median); for (IC50 CDK12 high ATP) to (Degradation DC50 CDK12) ratio: ratio of IC50 CDK12 hATP (2 mM ATP) to DC50 CDK12 (IF, CAL-120). A digest of the protocol: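 Cells were exposed to compounds in dose-response for 24 h at 37 °C, then PFA-fixed, immunostained for CDK12 and counterstained with Hoechst before confocal imaging. Nuclear CDK12 intensity was normalized to DMSO and control. DC50 is the concentration giving 50% reduction of nuclear staining.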

Assay [2] relates to CAL-120 human breast adenocarcinoma cells. The assay is described as follows: Proliferation assay CAL-120 (crystal violet). The following applies: CAL-120 cells, 4 days, median, read-out: Prolif-CAL-120— IC50 - [mol/l] (median). The gist of the method: (§1)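 Cells seeded at 4,000/well in medium with 10% fetal calf serum, dosed after 24 h (0.01-10 micromol/L, 0.1% DMSO) and grown 4 days. Crystal violet staining read at 595 nm, normalised to zero-point plate (0%) and untreated cells (100%); IC50 by 4-parameter fit.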

Assay [3] has as its system MDA-MB-231 human breast cancer cells. As to the kind of experiment: Proliferation assay MDA-MB-231 (crystal violet). The following applies: MDA-MB-231 cells, 4 days, median, read-out: Prolif-MDA MB231 IC50 - [mol/l] (median). The gist of the method: as §1
For assay [4], the target named is T2, CYCLIN K (Homo sapiens, UniProt O75909).
T2 construct: endogenous in cells; host or cells: CAL-120 human breast cancer cells (DSMZ ACC 459)
As to the kind of experiment: CYCLIN K nuclear protein level: immunofluorescence/high content analysis in CAL-120 cells. The following applies: 24 h, nuclear CCNK staining intensity, median, read-out: CYCLIN K degradation IF, DC50- [mol/l] (median). As to the method: 7. CYCLIN K Nuclear Protein Level: Immunofluorescence/High Content Analysis
In the context of the present invention, the term “DC50 Cyclin K” refers to the DC50 values obtained according to the assay described in this section (7) herein below, i.e. the DC50 values for the degradation of Cyclin K.
CAL-120 human breast cancer cells (DSMZ ACC 459) are seeded in 1536-well microtiter plates (800 cells per well) containing 50 nanoL of compounds in Dose-Response. Control wells received DMSO or Reference Example 1. Plates are then incubated for 24 h at 37° C. in an humidified incubator and fixed with 4% PFA for 10 min. Then immunofluorescence (IF) against CYCLIN K (ThermoFisher Scientific CCNK Antibody # PA5-85020, rabbit, 1:200 dilution) is performed using standard IF protocols. Cells are then stained with Hoechst 33342 (Life Technologies, H-1399, 0.1 microg/mL) and imaged on an automated confocal microscopy system (e.g. Perkin Elmer Opera Phenix). Nuclear and cytoplasmic intensity as well as the nuclear/cytoplasmic intensity ratio is determined by automated image analysis using custom generated scripts (MetaXpress). Data is then transferred to Genedata Screener software, normalized to DMSO and control and DC50 values (degrading concentration to achieve 50% reduction of nuclear CCNK staining intensity relative to controls) are reported.

Where two headings read alike, the source gives them in different places. Some results are limits rather than exact numbers.

T2 sequence (O75909 whole entry): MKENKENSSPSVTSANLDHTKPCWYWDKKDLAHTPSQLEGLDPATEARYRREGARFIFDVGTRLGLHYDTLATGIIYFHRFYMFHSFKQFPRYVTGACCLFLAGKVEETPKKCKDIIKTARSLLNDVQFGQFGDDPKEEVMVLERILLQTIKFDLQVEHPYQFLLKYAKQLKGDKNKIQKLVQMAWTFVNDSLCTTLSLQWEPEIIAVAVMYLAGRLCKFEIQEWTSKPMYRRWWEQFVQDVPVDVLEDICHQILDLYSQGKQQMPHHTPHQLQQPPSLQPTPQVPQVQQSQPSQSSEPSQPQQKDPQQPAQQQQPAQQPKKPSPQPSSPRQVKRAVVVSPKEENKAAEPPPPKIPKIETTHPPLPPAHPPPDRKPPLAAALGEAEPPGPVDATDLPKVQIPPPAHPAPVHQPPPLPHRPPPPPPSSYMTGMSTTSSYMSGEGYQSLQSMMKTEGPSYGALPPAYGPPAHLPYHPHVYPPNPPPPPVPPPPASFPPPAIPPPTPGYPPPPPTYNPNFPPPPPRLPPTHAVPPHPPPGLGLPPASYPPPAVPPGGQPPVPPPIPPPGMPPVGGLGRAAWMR
T2 sequence (Q9NYV4 whole entry partner): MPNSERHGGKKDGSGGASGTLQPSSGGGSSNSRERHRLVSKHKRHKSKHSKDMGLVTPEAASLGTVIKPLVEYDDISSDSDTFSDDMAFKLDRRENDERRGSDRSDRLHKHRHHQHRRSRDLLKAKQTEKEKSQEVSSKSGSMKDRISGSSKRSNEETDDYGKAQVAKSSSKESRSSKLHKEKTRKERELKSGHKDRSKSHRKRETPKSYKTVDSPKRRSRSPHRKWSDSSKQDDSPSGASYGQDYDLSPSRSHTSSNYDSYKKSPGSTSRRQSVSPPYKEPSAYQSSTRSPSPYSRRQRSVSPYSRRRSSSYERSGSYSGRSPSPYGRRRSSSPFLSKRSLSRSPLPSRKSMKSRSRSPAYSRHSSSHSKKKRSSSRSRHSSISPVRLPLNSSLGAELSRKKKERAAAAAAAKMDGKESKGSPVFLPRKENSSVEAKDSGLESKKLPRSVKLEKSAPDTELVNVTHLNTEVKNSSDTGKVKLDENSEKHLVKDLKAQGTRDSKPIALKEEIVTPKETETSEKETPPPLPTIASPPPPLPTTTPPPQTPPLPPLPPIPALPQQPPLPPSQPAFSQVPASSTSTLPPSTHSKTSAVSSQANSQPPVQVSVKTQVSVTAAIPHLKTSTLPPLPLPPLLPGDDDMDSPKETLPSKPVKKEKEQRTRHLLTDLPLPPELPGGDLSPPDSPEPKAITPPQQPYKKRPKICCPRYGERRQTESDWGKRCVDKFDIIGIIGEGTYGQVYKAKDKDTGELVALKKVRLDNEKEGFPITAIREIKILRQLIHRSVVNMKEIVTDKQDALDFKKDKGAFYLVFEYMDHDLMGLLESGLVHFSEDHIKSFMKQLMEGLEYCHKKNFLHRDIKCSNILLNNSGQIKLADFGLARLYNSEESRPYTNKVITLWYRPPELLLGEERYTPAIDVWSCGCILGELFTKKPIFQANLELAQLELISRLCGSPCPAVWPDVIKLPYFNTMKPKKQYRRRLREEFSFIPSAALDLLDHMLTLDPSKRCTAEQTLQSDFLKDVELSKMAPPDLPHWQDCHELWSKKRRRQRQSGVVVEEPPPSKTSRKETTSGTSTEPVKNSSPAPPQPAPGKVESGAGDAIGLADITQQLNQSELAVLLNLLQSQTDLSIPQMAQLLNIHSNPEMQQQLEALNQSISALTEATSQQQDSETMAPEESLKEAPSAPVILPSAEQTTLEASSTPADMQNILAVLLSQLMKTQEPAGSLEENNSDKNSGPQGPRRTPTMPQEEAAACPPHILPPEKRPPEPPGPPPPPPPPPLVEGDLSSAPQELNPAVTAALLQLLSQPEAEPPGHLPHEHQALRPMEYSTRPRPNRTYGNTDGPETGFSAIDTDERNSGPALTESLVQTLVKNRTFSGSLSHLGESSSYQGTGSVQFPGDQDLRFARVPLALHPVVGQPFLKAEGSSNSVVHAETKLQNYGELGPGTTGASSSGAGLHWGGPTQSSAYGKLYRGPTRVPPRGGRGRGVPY
T1 sequence (Q9NYV4 whole entry): as the sequence (Q9NYV4 whole entry partner) above
T1 sequence (O75909 whole entry partner): as the sequence (O75909 whole entry) above

As for `O[C@H]1C[C@H](n2nc(NCc3nc4ccccc4[nH]3)c3ncc(C4CC4)nc32)C1` [Example 43, trans-3-(3-{[(1H-benzimidazol-2-yl)methyl]amino}-6-cyclopropyl-1H-pyrazolo[3,4-b]pyrazin-1-yl)cyclobutan-1-ol], the DC50 in assay [1] was determined as 9.53 nM; in assay [4], 4.79 nM. Besides, the IC50 in assay [2] (Homo sapiens, CAL-120, 96 h) was determined as 41.9 nM; in assay [3] (Homo sapiens, MDA-MB-231, 96 h), 62.2 nM.
Regarding `OC1(Cn2nc(NCc3nc4ccccc4[nH]3)c3ncc(C4CC4)nc32)CCCC1` [Example 73, 1-[(3-{[(1H-benzimidazol-2-yl)methyl]amino}-6-cyclopropyl-1H-pyrazolo[3,4-b]pyrazin-1-yl)methyl]cyclopentan-1-ol], the DC50 in assay [1] worked out at 112 nM; in assay [4] it was 53.2 nM. Besides, in assay [1], the “(IC50 CDK12 high ATP) to (Degradation DC50 CDK12) ratio” value is recorded as over 90. Besides, the IC50 in assay [2] (Homo sapiens, CAL-120, 96 h) is 110 nM; in assay [3] (Homo sapiens, MDA-MB-231, 96 h), 141 nM.
With `Cc1cccc2[nH]c(CNc3nn(C4CCN(C)CC4)c4nc(C5CC5)cnc34)nc12` [Example 8, 6-cyclopropyl-N-[(4-methyl-1H-benzimidazol-2-yl)methyl]-1-(1-methylpiperidin-4-yl)-1H-pyrazolo[3,4-b]pyrazin-3-amine], the values for the DC50 in assay [1] and in assay [4] were 8.53 nM and 6.22 nM, respectively. Moreover, the “(IC50 CDK12 high ATP) to (Degradation DC50 CDK12) ratio” value in assay [1] is over 2344. The IC50 in assay [2] (Homo sapiens, CAL-120, 96 h) stood at 14.2 nM; in assay [3] (Homo sapiens, MDA-MB-231, 96 h) it was 39.6 nM.
Consider `c1ccc2[nH]c(CNc3nn(C4CCOCC4)c4nc(C5CC5)cnc34)nc2c1` [Example 16, N-[(1H-benzimidazol-2-yl)methyl]-6-cyclopropyl-1-(oxan-4-yl)-1H-pyrazolo[3,4-b]pyrazin-3-amine], for which the DC50 in assay [1] was 84 nM; in assay [4], over 677 nM. In assay [1], the “(IC50 CDK12 high ATP) to (Degradation DC50 CDK12) ratio” value was over 238. Besides, the IC50 in assay [2] (Homo sapiens, CAL-120, 96 h) is 103 nM; in assay [3] (Homo sapiens, MDA-MB-231, 96 h), 70.2 nM.
Consider `COc1cccc2[nH]c(CNc3nn(C4CCOCC4)c4nc(C5CC5)cnc34)nc12` [Example 24, 6-cyclopropyl-N-[(4-methoxy-1H-benzimidazol-2-yl)methyl]-1-(oxan-4-yl)-1H-pyrazolo[3,4-b]pyrazin-3-amine], for which the DC50 amounted to 12 nM in assay [1] and 1.22 nM in assay [4]. For the same compound, in assay [1], the “(IC50 CDK12 high ATP) to (Degradation DC50 CDK12) ratio” value stood at 1614. Further, the IC50 in assay [2] (Homo sapiens, CAL-120, 96 h) was determined as 10 nM; in assay [3] (Homo sapiens, MDA-MB-231, 96 h), 12.4 nM.
For `COCCC(C)n1nc(NCc2nc3ccccc3[nH]2)c2ncc(C3CC3)nc21` (single isomer, unassigned; (-)) [Example 58, (−)-N-[(1H-benzimidazol-2-yl)methyl]-6-cyclopropyl-1-[4-methoxybutan-2-yl]-1H-pyrazolo[3,4-b]pyrazin-3-amine], the DC50 in assay [1] is 27.2 nM; in assay [4], 15.6 nM. In addition, the “(IC50 CDK12 high ATP) to (Degradation DC50 CDK12) ratio” value in assay [1] is listed as over 735. Besides, the IC50 in assay [2] is 156 nM; in assay [3] it was 213 nM.
In the case of `CC1CC(n2nc(NCc3nc4ccccc4[nH]3)c3ncc(C4CC4)nc32)CCO1` (racemic) [Example 44, (±)-cis/trans-N-[(1H-benzimidazol-2-yl)methyl]-6-cyclopropyl-1-(2-methyloxan-4-yl)-1H-pyrazolo[3,4-b]pyrazin-3-amine], the DC50 in assay [1] was 34.9 nM; in assay [4], 13.5 nM. Further, the IC50 in assay [2] (Homo sapiens, CAL-120, 96 h) was 23.5 nM; in assay [3] (Homo sapiens, MDA-MB-231, 96 h), 37.9 nM.
Regarding `OC[C@H]1C[C@H](n2nc(NCc3nc4ccccc4[nH]3)c3ncc(C4CC4)nc32)C1` [Example 46, [trans-3-(3-{[(1H-benzimidazol-2-yl)methyl]amino}-6-cyclopropyl-1H-pyrazolo[3,4-b]pyrazin-1-yl)cyclobutyl]methanol], the DC50 turned out to be 13.8 nM in assay [1] and 4.87 nM in assay [4]. Also, the IC50 is 20.1 nM in assay [2] (Homo sapiens, CAL-120, 96 h) and 47.2 nM in assay [3] (Homo sapiens, MDA-MB-231, 96 h).
Take `CC(C)(O)Cn1nc(NCc2nc3ccccc3[nH]2)c2ncc(C3CC3)nc21` [Example 69, 1-(3-{[(1H-benzimidazol-2-yl)methyl]amino}-6-cyclopropyl-1H-pyrazolo[3,4-b]pyrazin-1-yl)-2-methylpropan-2-ol]: the DC50 in assay [1] worked out at 99.4 nM; in assay [4] it was 34.1 nM. In addition, the “(IC50 CDK12 high ATP) to (Degradation DC50 CDK12) ratio” value in assay [1] was over 101. Besides, the IC50 in assay [2] (Homo sapiens, CAL-120, 96 h) amounted to 199 nM; in assay [3] (Homo sapiens, MDA-MB-231, 96 h), 311 nM.
Take `CC(C)(O)C1CC(n2nc(NCc3nc4ccccc4[nH]3)c3ncc(C4CC4)nc32)C1` (mixture of isomers) [Example 48, 2-[cis/trans-3-(3-{[(1H-benzimidazol-2-yl)methyl]amino}-6-cyclopropyl-1H-pyrazolo[3,4-b]pyrazin-1-yl)cyclobutyl]propan-2-ol]: the DC50 is 7.12 nM in assay [1] and 11.3 nM in assay [4]. In addition, the IC50 in assay [2] (Homo sapiens, CAL-120, 96 h) stood at 42.5 nM; in assay [3] (Homo sapiens, MDA-MB-231, 96 h) it was 66.1 nM.
As for `OC[C@H]1C[C@@H](n2nc(NCc3nc4ccccc4[nH]3)c3ncc(C4CC4)nc32)C1` [Example 47, [cis-3-(3-{[(1H-benzimidazol-2-yl)methyl]amino}-6-cyclopropyl-1H-pyrazolo[3,4-b]pyrazin-1-yl)cyclobutyl]methanol], the DC50 in assay [1] was determined as 22.8 nM; in assay [4], 6.29 nM. For the same compound, the IC50 in assay [2] (Homo sapiens, CAL-120, 96 h) turned out to be 27.5 nM; in assay [3] (Homo sapiens, MDA-MB-231, 96 h) it was 50.8 nM.
Regarding `COCCn1nc(NCc2nc3ccccc3[nH]2)c2ncc(C3CC3)nc21` [Example 65, N-[(1H-benzimidazol-2-yl)methyl]-6-cyclopropyl-1-(2-methoxyethyl)-1H-pyrazolo[3,4-b]pyrazin-3-amine], the DC50 amounted to 20.5 nM in assay [1] and 37.4 nM in assay [4]. Besides, the IC50 in assay [2] (Homo sapiens, CAL-120, 96 h) is 147 nM; in assay [3] (Homo sapiens, MDA-MB-231, 96 h) it was 437 nM.
Regarding `O[C@H]1CC[C@H](n2nc(NCc3nc4ccccc4[nH]3)c3ncc(C4CC4)nc32)CC1` [Example 50, trans-4-(3-{[(1H-benzimidazol-2-yl)methyl]amino}-6-cyclopropyl-1H-pyrazolo[3,4-b]pyrazin-1-yl)cyclohexan-1-ol], the DC50 in assay [1] stood at 3.15 nM; in assay [4], 3.27 nM. Also, the IC50 in assay [2] (Homo sapiens, CAL-120, 96 h) is 11 nM; in assay [3] (Homo sapiens, MDA-MB-231, 96 h) it was 15 nM.
Consider `OCC1(Cn2nc(NCc3nc4ccccc4[nH]3)c3ncc(C4CC4)nc32)CCC1` [Example 74, {1-[(3-{[(1H-benzimidazol-2-yl)methyl]amino}-6-cyclopropyl-1H-pyrazolo[3,4-b]pyrazin-1-yl)methyl]cyclobutyl}methanol], for which the DC50 turned out to be 15.1 nM in assay [1] and 13.6 nM in assay [4]. For the same compound, in assay [1], the “(IC50 CDK12 high ATP) to (Degradation DC50 CDK12) ratio” value is recorded as over 660. Besides, the IC50 in assay [2] (Homo sapiens, CAL-120, 96 h) was 46.7 nM; in assay [3] (Homo sapiens, MDA-MB-231, 96 h), 251 nM.
Turning to `CN1CCC(n2nc(NCc3nc4cc(Cl)c(Cl)cc4[nH]3)c3ncc(C4CC4)nc32)CC1` [Example 19, 6-cyclopropyl-N-[(5,6-dichloro-1H-benzimidazol-2-yl)methyl]-1-(1-methylpiperidin-4-yl)-1H-pyrazolo[3,4-b]pyrazin-3-amine], the DC50 in assay [1] was determined as 4.66 nM; in assay [4] it was 0.339 nM. Further, the “(IC50 CDK12 high ATP) to (Degradation DC50 CDK12) ratio” value in assay [1] is over 4294. In addition, the IC50 in assay [2] (Homo sapiens, CAL-120, 96 h) came to 3.61 nM; in assay [3] (Homo sapiens, MDA-MB-231, 96 h), 4.83 nM.
Consider `COC(C)(C)CCn1nc(NCc2nc3ccccc3[nH]2)c2ncc(C3CC3)nc21` [Example 67, N-[(1H-benzimidazol-2-yl)methyl]-6-cyclopropyl-1-(3-methoxy-3-methylbutyl)-1H-pyrazolo[3,4-b]pyrazin-3-amine], for which the DC50 in assay [1] was 21 nM; in assay [4], 15.6 nM. Also, the “(IC50 CDK12 high ATP) to (Degradation DC50 CDK12) ratio” value in assay [1] is on record as over 937. The IC50 was 79.7 nM in assay [2] (Homo sapiens, CAL-120, 96 h) and 268 nM in assay [3] (Homo sapiens, MDA-MB-231, 96 h).
With `COc1cccc2[nH]c(CNc3nn(C4CCN(C)CC4)c4nc(C5CC5)cnc34)nc12` [Example 2, 6-cyclopropyl-N-[(4-methoxy-1H-benzimidazol-2-yl)methyl]-1-(1-methylpiperidin-4-yl)-1H-pyrazolo[3,4-b]pyrazin-3-amine], the DC50 in assay [1] was found to be 6.09 nM; in assay [4], 0.704 nM. Besides, in assay [1], the “(IC50 CDK12 high ATP) to (Degradation DC50 CDK12) ratio” value was over 3284. Besides, the IC50 in assay [2] (Homo sapiens, CAL-120, 96 h) amounted to 11 nM; in assay [3] (Homo sapiens, MDA-MB-231, 96 h) it was 10.8 nM.

Source of the values: patent US20230192700A1, “PYRAZOLOPYRAZINES ACTING ON CANCERS VIA INHIBITION OF CDK12” (Bayer Aktiengesellschaft, priority 2020, published 2023).
